Laboratory results: patent publication US4663329A, “Thienopyridinone derivatives and anti-bacterial compositions containing them” (Sanofi, priority 1984, dated 1987)
Converted amounts (≈) assume the structure as drawn. Read-outs that look alike come from different tables or passages of the source.

What was measured:
Type in all cases: cell-based
[1] = system: Staphylococcus aureus 53154 IP; test: In vitro antibacterial activity, MIC, Staphylococcus aureus 53154 IP; details: Staphylococcus aureus 53154 IP; 37° C., pH=7.4, inoculum 10^4; read-out: MIC
Procedure: (§1) Tests carried out in vitro in accordance with the experimental procedure described hereunder have provided evidence of the antibacterial activity in question.
(§2) For this purpose, the M.I.C. were determined i.e. the minimal inhibiting concentrations of the compound under study acting on the growth of the bacteria at 37° C.
(§3) The serial dilutions method was used utilizing a MUELLER HINTON gelose medium at pH=7.4 and a bacterial inoculum of 10^4 units forming colonies. This inoculum was applied to the gelose by means of a multiple sowing device.
(§4) A scale of concentrations ranging from 100 to 0.05 μg/ml of compound to be studied was used starting from mother solutions titrating 1000 μg/ml, all the subsequent dilutions being effected in distilled water.

[2] = system: Streptococcus faecalis 5855 IP; test: In vitro antibacterial activity, MIC, Streptococcus faecalis 5855 IP; details: Enterococcus faecalis, 37° C., pH=7.4, inoculum 10^4, read-out: MIC
Procedure: as §1, §2, §3, §4

[3] = system: Bacillus subtilis ATCC 6633; test: In vitro antibacterial activity, MIC, Bacillus subtilis ATCC 6633; details: ATCC6633
Procedure: as §1, §2, §3, §4

[4] = system: Escherichia coli 54127 IP; test: In vitro antibacterial activity, MIC, Escherichia coli 54127 IP
Procedure: as §1, §2, §3, §4

[5] = system: Escherichia coli SOL RL 90; test: In vitro antibacterial activity, MIC, Escherichia coli SOL RL 90; details: SOLRL90
Procedure: as §1, §2, §3, §4

[6] = system: Citrobacter freundii GN 346; test: In vitro antibacterial activity, MIC, Citrobacter freundii GN 346; details: GN346
Procedure: as §1, §2, §3, §4

[7] = system: Proteus vulgaris RL 99 bis; test: In vitro antibacterial activity, MIC, Proteus vulgaris RL 99 bis; details: RL99BIS
Procedure: as §1, §2, §3, §4

[8] = system: Proteus mirabilis ATCC 21100; test: In vitro antibacterial activity, MIC, Proteus mirabilis ATCC 21100; details: ATCC21100
Procedure: as §1, §2, §3, §4

Proteus morganii 1510 = test: In vitro antibacterial activity, MIC, Proteus morganii 1510; details: Morganella morganii
Procedure: as §1, §2, §3, §4

[9] = system: Providencia stuartii 5158; test: In vitro antibacterial activity, MIC, Providencia stuartii 5158
Procedure: as §1, §2, §3, §4

[10] = system: Serratia liquefaciens 376; test: In vitro antibacterial activity, MIC, Serratia liquefaciens 376; details: 37° C., pH=7.4, inoculum 10^4, read-out: MIC
Procedure: as §1, §2, §3, §4

[11] = system: Klebsiella pneumoniae ATCC 10031; test: In vitro antibacterial activity, MIC, Klebsiella pneumoniae ATCC 10031; details: ATCC10031
Procedure: as §1, §2, §3, §4

[12] = system: Klebsiella pneumoniae R 30; test: In vitro antibacterial activity, MIC, Klebsiella pneumoniae R 30; details: R30
Procedure: as §1, §2, §3, §4

[13] = system: Enterobacter cloacae P 99; test: In vitro antibacterial activity, MIC, Enterobacter cloacae P 99; details: Enterobacter cloacae, P99
Procedure: as §1, §2, §3, §4

[14] = system: Enterobacter hafniae RO 46; test: In vitro antibacterial activity, MIC, Enterobacter hafniae RO 46; details: Hafnia alvei, RO46
Procedure: as §1, §2, §3, §4

Shigella sonnei R 018 = test: In vitro antibacterial activity, MIC, Shigella sonnei R 018; details: R018, 37° C., pH=7.4, inoculum 10^4
Procedure: as §1, §2, §3, §4

[15] = system: Salmonella typhimurium A 222 IP; test: In vitro antibacterial activity, MIC, Salmonella typhimurium A 222 IP; details: Salmonella enterica
Procedure: as §1, §2, §3, §4

[16] = system: Salmonella typhi ATCC 6539; test: In vitro antibacterial activity, MIC, Salmonella typhi ATCC 6539; details: Salmonella enterica
Procedure: as §1, §2, §3, §4

[17] = system: Bordetella bronchiseptica ATCC 4617; test: In vitro antibacterial activity, MIC, Bordetella bronchiseptica ATCC 4617; details: ATCC4617, 37° C., pH=7.4, inoculum 10^4, read-out: MIC
Procedure: as §1, §2, §3, §4

[18] = system: Pseudomonas aeruginosa 8203; test: In vitro antibacterial activity, MIC, Pseudomonas aeruginosa 8203; details: 37° C., pH=7.4, inoculum 10^4, read-out: MIC
Procedure: as §1, §2, §3, §4

[19] = system: Acinetobacter calcoaceticus C 1733; test: In vitro antibacterial activity, MIC, Acinetobacter calcoaceticus C 1733; details: C1733, 37° C., pH=7.4, inoculum 10^4, read-out: MIC
Procedure: as §1, §2, §3, §4

[20] = Escherichia coli 54127 IP, 37° C., pH=7.4, inoculum 10^4, read-out: MIC
[21] = Proteus vulgaris RL 99 bis, 37° C., pH=7.4, inoculum 10^4, read-out: MIC
[22] = Proteus mirabilis ATCC 21100, 37° C., pH=7.4, inoculum 10^4, read-out: MIC
[23] = Proteus morganii 1510, 37° C., pH=7.4, inoculum 10^4, read-out: MIC
[24] = Providencia stuartii 5158, 37° C., pH=7.4, inoculum 10^4, read-out: MIC
[25] = Klebsiella pneumoniae ATCC 10031, 37° C., pH=7.4, inoculum 10^4, read-out: MIC
[26] = Enterobacter hafniae RO 46, 37° C., pH=7.4, inoculum 10^4, read-out: MIC
[27] = Klebsiella pneumoniae R 30, 37° C., pH=7.4, inoculum 10^4, read-out: MIC

SMILES	MIC [1] [µg/mL]	MIC [2] [µg/mL]	MIC ([3]; Bacillus subtilis) [µg/mL]	MIC [4, 20] [µg/mL]	MIC ([5]; Escherichia coli) [µg/mL]	MIC ([6]; Citrobacter freundii) [µg/mL]	MIC [7, 21] [µg/mL]	MIC [8, 22] [µg/mL]	MIC (Proteus morganii 1510; [23]) [µg/mL]	MIC [9, 24] [µg/mL]	MIC [10] [µg/mL]	MIC [11, 25] [µg/mL]	MIC [13] [µg/mL]	MIC [14, 26] [µg/mL]	MIC (Shigella sonnei R 018) [µg/mL]	MIC ([15]; TYPHIMURIUM) [µg/mL]	MIC [16] [µg/mL]	MIC [17] [µg/mL]	MIC [18] [µg/mL]	MIC [19] [µg/mL]	also measured
CCn1cc(C(=O)O)c(=O)c2cc(/C=N\O)sc21 [Compound C, 4,7-Dihydro-7-ethyl-2-hydroxyiminomethyl-4-oxo-thieno[2,3-b]pyridine-5-carboxylic acid, syn-isomer]	12.5 (≈ 46.9 µM)	> 100	6.25 (≈ 23.5 µM)	12.5 (≈ 46.9 µM)	3.12 (≈ 11.7 µM)	3.12 (≈ 11.7 µM)	12.5 (≈ 46.9 µM)	12.5 (≈ 46.9 µM)	0.4 (≈ 1.5 µM)	12.5 (≈ 46.9 µM)	50 (≈ 188 µM)	12.5 (≈ 46.9 µM)	3.12 (≈ 11.7 µM)	12.5 (≈ 46.9 µM)	0.8 (≈ 3 µM)	3.12 (≈ 11.7 µM)	3.12 (≈ 11.7 µM)	> 100	> 100	> 100	MIC ([12]; Klebsiella pneumoniae): 6.25 µg/mL (≈ 23.5 µM)
CCn1cc(C(=O)O)c(=O)c2cc(C=NOC(C)(C)C)sc21 [Compound I, 4,7-Dihydro-7-ethyl-4-oxo-2-tert-butoxyiminomethyl-thieno[2,3-b]pyridine-5-carboxylic acid]	> 50	> 100	–	> 25	–	–	> 50	> 25	> 25	> 50	> 25	3.12 (≈ 9.68 µM)	> 25	> 25	> 50	–	> 25	> 25	> 25	> 25	MIC ([3]; Bacillus subtilis ATCC 6633, 37° C., pH=7.4, inoculum 10^4, read-out: MIC): 1.56 µg/mL (≈ 4.84 µM); MIC ([5]; Escherichia coli SOL RL 90, 37° C., pH=7.4, inoculum 10^4, read-out: MIC): > 50 µg/mL; MIC ([6]; Citrobacter freundii GN 346, 37° C., pH=7.4, inoculum 10^4, read-out: MIC): > 25 µg/mL; MIC [12, 27]: > 25 µg/mL; MIC ([15]; Salmonella typhimurium A 222 IP, 37° C., pH=7.4, inoculum 10^4, read-out: MIC): > 50 µg/mL
CCn1cc(C(=O)O)c(=O)c2cc(C=Nc3ccccc3O)sc21 [Compound F, 4,7-Dihydro-7-ethyl-2-N-(2-hydroxy-phenyl)-iminomethyl-4-oxo-thieno[2,3-b]pyridine-5-carboxylic acid]	100 (≈ 292 µM)	> 100	6.25 (≈ 18.3 µM)	1.56 (≈ 4.56 µM)	3.12 (≈ 9.11 µM)	6.25 (≈ 18.3 µM)	–	–	–	12.5 (≈ 36.5 µM)	> 100	12.5 (≈ 36.5 µM)	6.25 (≈ 18.3 µM)	1.56 (≈ 4.56 µM)	6.25 (≈ 18.3 µM)	3.12 (≈ 9.11 µM)	3.12 (≈ 9.11 µM)	> 100	> 100	100 (≈ 292 µM)	MIC ([7]; Proteus vulgaris): 3.12 µg/mL (≈ 9.11 µM); MIC ([8]; Proteus mirabilis): 3.12 µg/mL (≈ 9.11 µM); MIC (Proteus morganii 1510; 1510): 6.25 µg/mL (≈ 18.3 µM); MIC [12, 27]: 12.5 µg/mL (≈ 36.5 µM)
CCn1cc(C(=O)O)c(=O)c2cc(C=NO)sc21 [Compound A, 4,7-Dihydro-7-ethyl-2-hydroxyiminomethyl-4-oxo-thieno[2,3-b]pyridine-5-carboxylic acid]	25 (≈ 93.9 µM)	> 100	–	–	6.25 (≈ 23.5 µM)	6.25 (≈ 23.5 µM)	–	–	–	–	100 (≈ 376 µM)	–	6.25 (≈ 23.5 µM)	–	1.56 (≈ 5.86 µM)	6.25 (≈ 23.5 µM)	6.25 (≈ 23.5 µM)	> 100	50 (≈ 188 µM)	> 100	MIC ([4]; Escherichia coli, 54127IP): 3.12 µg/mL (≈ 11.7 µM); MIC ([7]; Proteus vulgaris): 1.56 µg/mL (≈ 5.86 µM); MIC ([8]; Proteus mirabilis): 1.56 µg/mL (≈ 5.86 µM); MIC (Proteus morganii 1510; 1510): 1.56 µg/mL (≈ 5.86 µM); MIC ([9]; Providencia stuartii, 5158): 6.25 µg/mL (≈ 23.5 µM); MIC ([11]; Klebsiella pneumoniae): 1.56 µg/mL (≈ 5.86 µM); MIC ([12]; Klebsiella pneumoniae): 6.25 µg/mL (≈ 23.5 µM); MIC [14]: 1.56 µg/mL (≈ 5.86 µM)
